Measurements taken from a melting point compilation (Tetko et al.; mined from patent text by program, amines drawn as free bases though some values may be those of a salt).

Structure (SMILES) | melting point
O=[N+]([O-])c1cn2c(n1)OC(COc1ccc(N3CCC(Cc4cc5cc(OC(F)(F)F)ccc5o4)CC3)cc1)CC2 (centres undefined) | 142 to 143 °C
COc1ccc2cnc(N)nc2c1C1CCCC1 | 181 to 183 °C
CCOC(=O)C(O)=Cc1cc(CCc2ccc(F)cc2)ccn1 | 129 to 130 °C
CCCCOc1nc2cccc(C(=O)OC)c2n1Cc1ccc(-c2ccccc2C#N)cc1 | 74 to 75 °C
Cc1ccc(-c2cccc(/C=C/C(=O)Nc3ccc(Cn4ccnc4)cc3)c2)cc1 | 198 to 200 °C
CN(C)C(=O)c1ccc(C(=O)CS(=O)(=O)C(c2ccc(Cl)cc2)c2ccc(Cl)cc2)s1 | 192 to 194 °C
CC(=O)c1ccc(=O)[nH]c1C | 196 to 198 °C
CCCc1c(OCCCOc2ccc(C#N)cc2Br)ccc(C(C)=O)c1O | 88 to 89 °C
COc1cc(Nc2c(C#N)cnc3cc(-c4cccc(CN5CCOCC5)c4)c(OC)cc23)c(Cl)cc1Cl | 155 to 158 °C
Cc1ccnc(C(=O)c2[nH]c3ccc(Cl)cc3c2CC(=O)NCCO)c1 | 196 °C
C=C1COc2c(F)c(F)cc3c(=O)c(C(=O)OCC)cn1c23 | 258 to 263 °C
c1ccc2oc(-c3ccncc3)nc2c1 | 129 to 131 °C
O=Cc1ccc(OCc2ccccc2)c2[nH]c(C(=O)O)cc12 | 207 °C
CC(C)(O)Cc1c(Br)cnc2c(NC(=O)c3c(Cl)cccc3Cl)cccc12 | 260 to 262 °C
CC(NC(=O)C(NC(=O)c1ccccc1)SC(=O)c1ccccc1)C(=O)N1CCCC1C(=O)O (centres undefined) | 185 to 188 °C
Cc1cc(C2CC(C)(C)CC(C)(C)C2=O)ccc1F (centres undefined) | 63 to 64 °C
O=C(NS(=O)(=O)c1ccc(Oc2cccc(C(F)(F)F)c2)cc1)c1ccc(C(=O)NCCO)nc1 | 167 to 168 °C
Cc1cc(-c2nnc3c4ccccc4c(OCc4ccn(C)n4)nn23)no1 | 243 to 244 °C
C=C1CCC2C3CCC4CC(OCOC)CCC4(C)C3CCC12C (centres undefined) | 73 to 75 °C

Structure (SMILES) | melting point
CCN1c2ncccc2C(=O)N(C)c2ccc(-c3c[nH]nc3C)nc21 | 113 to 115 °C
Cc1oc(-c2ccccc2)nc1CCc1nc(CCl)co1 | 71 to 72 °C
O=c1c2ccc(Cl)cc2n(Cc2ccccc2)n2c(Br)ccc12 | 148 to 149 °C
Cc1c(CC(F)(F)C(F)(F)C(F)(F)F)c(-c2ccc(S(N)(=O)=O)cc2)c2n1CCC2 | 221 °C
NS(=O)(=O)C1(c2ncc(C(F)(F)F)cc2Cl)C=CC(Cl)=CC1Cl (centres undefined) | 125 to 126 °C
CCOC(=O)C(Cc1nc2cc(Cl)c(Cl)cc2nc1CP(=O)(OC)OC)(NC(C)=O)C(=O)OCC | 130 to 132 °C
CC(COc1ccc2ccc(N)nc2n1)CN(C)C (centres undefined) | 108 °C
O=C(CCCCl)c1cc2c(s1)C(=O)NCCC2 | 163 to 165 °C
CC(C)(C)[Si](C)(C)OCCCC(=O)c1cc(-c2ccc(S(C)(=O)=O)cc2)n(C2CCCCC2)n1 | 131 to 133 °C
COc1nccc(Oc2ccc(NC(=O)c3cc(F)cc(N4CCOCC4)c3)c3ccccc23)n1 | 216 to 217 °C
N#CC(=NO)C(=O)NC(=O)NCCCCCC(N)=O | 187 to 189 °C
Clc1ccc(-c2ccc(C=CC3COC4(CCCCC4)OO3)cc2)cc1 (centres undefined) | 109 to 111 °C
Fc1cccc2sc(C3=CCNCC3)cc12 | 83 to 86 °C
O=[N+]([O-])c1ccc2c(c1)C1OC1CCO2 (centres undefined) | 121 to 123 °C
CC(C)c1cccc(C(C)C)c1NC(=O)[C@H](CCc1ccccc1)NC(=O)OC(C)(C)C | 193 to 197 °C
O=Cc1cc(-c2ccccc2)c(=O)n2c1-c1sccc1CC2 | 213 to 215 °C
O=C1CCCc2cc(OCCCCl)ccc21 | 85 to 87 °C
O=C(O)CN1CCN(c2ccnc(-c3nc(=O)c4ccccc4s3)c2)C1=O | 271 to 273 °C
Cn1cnc2c1ccn1c(=O)c(-c3ccc(OCc4ccccc4)cc3)cc(C(=O)O)c21 | 227 to 229 °C

Structure (SMILES) | melting point
CNCC(O)CN1CCN(CC(O)Cn2c3ccc(Br)cc3c3cc(Br)ccc32)CC1 (centres undefined) | 65 to 75 °C
Cc1csc2nc(COc3ccccc3)cn12 | 190 to 192 °C
CC(C)(C)c1cc(C(c2ccccc2)N2CCCCC2)c(O)c(C(C)(C)C)c1 (centres undefined) | 140 to 141 °C
COCCOc1ccc(/C=C/C(=O)NS(=O)(=O)c2cccc(Cl)c2)c(Oc2ncc(C(F)(F)F)cc2Cl)c1 | 157 to 158 °C
N#Cc1ccc(N(Cc2ccc3c(c2)NS(=O)(=O)O3)n2ccnc2)cc1 | 230 °C
O=C1c2cccc3cc4ccccc4c(c23)C(=O)N1CCO | 211 °C
CC(C)(C)[Si](OCC1CSC2=C(O1)c1ccccc1C(=O)C2=O)(c1ccccc1)c1ccccc1 (centres undefined) | 205 to 210 °C
C=Cc1ccc2c3ccc(C=C)cc3n(CC(CC)CCCC)c2c1 (centres undefined) | 59 to 60 °C
COc1ccc2[nH]c(SCc3ncc(C)c(N4CCOCC4)c3Cl)nc2c1 | 162 to 164 °C
COc1ccc(CNc2nnc(N(C)CCCO)c3ccc(Cl)cc23)cc1Cl | 115 to 117 °C
Nc1cc(F)ccc1C(=O)C1CCN(CCn2c(=O)[nH]c3ccccc3c2=O)CC1 | 270 °C
COc1cc(OC)nc(C(=O)NS(=O)(=O)Oc2c(Cl)cccc2Cl)n1 | 136 to 139 °C
CCc1ccc(Nc2nc3cc(NC(=O)c4cc(OC)c(OC)c(OC)c4)ccc3o2)cc1 | > 250 °C
CCOC(=O)C1=C(C)NC(C=NOC)=C(C(=O)OCC)C1c1ccccc1Cl (centres undefined) | 110 to 112 °C
CC(=O)c1ccc(-c2ccc(CC(C)O)cc2)cc1 (single isomer, unassigned; (-)) | 139 to 140 °C
CCN(CC)c1ccc(C2(c3ccc(N(C)C)cc3)OC(=O)c3c(Cl)c(Cl)c(Cl)c(Cl)c32)c(N(CC)CC)c1 (centres undefined) | 174 to 176 °C
CCOC(=O)Cn1c(=O)n(Cc2ccc(Cl)c(Cl)c2)c(=O)c2ccccc21 | 121 to 122 °C
NC(=O)COc1ccc2sc(S(N)(=O)=O)cc2c1 | 197 to 198 °C
CCCCn1c(-c2ccccc2)nc(Cl)c1CC(=O)O | 189 to 190 °C

Second part, the compound after the results:

melting point | Structure (SMILES)
170 to 173 °C | O=C(c1ccc(Br)cc1)N1CCN(CCCN2CCN(C(=O)c3ccc(Br)cc3)CC2)CC1
285 °C | CN(C)c1ccc2nc(N)c(C#N)c(Cl)c2c1
82 °C | CCCN(C(=S)NC(=O)c1ccccc1)C(CO)c1ccccc1 (centres undefined)
178 to 180 °C | C=CC[C@@H](C(=O)N[C@H](C(=O)N[C@H](C)c1ccccc1)C(C)(C)C)[C@@H]1OC(C)(C)OC1=O
74 to 75 °C | CCCCCCCCCCCCCCCCOc1ccc(OCC(=O)NCCc2ccccn2)cc1
122 to 123 °C | CCC(CC)(C(=O)OC1CC(C)(C)N(OCc2ccccc2)C(C)(C)C1)C(=O)OC1CC(C)(C)N(OCc2ccccc2)C(C)(C)C1
153 to 154 °C | O=C(Nc1ccc(Oc2ccnc(-n3ccnc3)n2)c2ccccc12)c1cc(F)cc(N2CCOCC2)c1
261 to 263 °C | O=C(O)c1ccc(COCc2csc3nc(C(=O)NCc4cccc(C(F)(F)F)c4)[nH]c(=O)c23)cc1
126 to 129 °C | NC(=S)NN=C(CCCCl)c1ccc(O)cc1
70 to 72 °C | CCOC(=O)c1ncn(Cc2c(F)cccc2F)c1C(=O)OCC
62 to 64 °C | CCOC(=O)COc1ccc(OCc2ccccc2)cc1OCc1ccccc1
80 to 82 °C | CC(C)(C)OC(=O)NCCC[C@H](NC(=O)OC(C)(C)C)C(=O)OC(C)(C)C
124 to 130 °C | CCOCC1COc2cc(C(=O)O)c(N)cc2O1 (centres undefined)
109 to 112 °C | COc1cc2c(c(Cl)c1Cl)C(=O)C(C)(C1CCCC1)C2 (centres undefined)
204 to 207 °C | COC(=O)c1c(OCc2ccc(-c3ccccc3-c3nnn[nH]3)cc2)cc(C)nc1Cl
294 to 295 °C | COc1cc2c(=O)n(CCN3CCCCC3)c3c4cc5c(cc4nnc3c2cc1OC)OCO5
85 to 86 °C | CN(CCc1ccccc1)C1CCN(C(=O)c2ccc(-n3cncn3)nc2)CC1
154 °C | COc1cc2c(cc1OCc1ccccc1)C1Cc3c(Cl)cc(OC)c(OCCO)c3CN1CC2 (centres undefined)
158 to 161 °C | NC(=O)c1cc(NCc2ccccc2Cl)c([N+](=O)[O-])cc1[N+](=O)[O-]
208 to 209 °C | CCC(C)Nc1cc(-c2ccc(Cl)cc2)nc2nn(C)cc12 (centres undefined)
162 to 164 °C | CC(=O)Nc1c(C(N)=O)n[nH]c1C(C)C

melting point | Structure (SMILES)
> 200 °C | Cc1nc(N2CCN(Cc3ccc(Cl)cc3)C2=O)sc1C(N)=O
165 to 166 °C | O=C(O)CCN1CCN(Cc2ccccc2)CC1
92 °C | O=C(CF)CCCN1C(=O)c2ccccc2C1=O
312 °C | CCC(C)(C)c1cc(-c2ccc(C=C3SC(=O)NC3=O)cn2)cc2nc(C)oc12
137 °C | O=[N+]([O-])c1cnccc1NCc1ccc(F)cc1
66 °C | CCC1=Nc2ccccc2CC(c2ccc(C)s2)N1C (centres undefined)
194 °C | CC(C#N)(Cn1c(C(F)(F)F)nc2ccccc21)NC(=O)c1ccc(OC(F)(F)F)cc1 (centres undefined)
166 to 167 °C | CCC(CC)n1nnc2c(Nc3c(Br)cc(OC)cc3OC)nc(C)cc21
128 to 130 °C | Cc1ccc(N)c(C(=O)NCCC(C)n2ccnc2)c1 (centres undefined)
58 to 61 °C | CC(C)=Cc1ccc(-c2ccc(CCCI)cc2)cc1
130 to 132 °C | CC(=O)N(O)C(C)c1cc2ccccc2o1 (centres undefined)
158 °C | O=C(O)C(S)=Cc1ccc(C(F)(F)F)o1
113 to 114 °C | CCOC(=O)c1sc(Cl)nc1-c1ccc(F)cc1
208 to 209 °C | COC(=O)c1cc(N2CCCC2)c(Oc2cc(C)cc(C)c2)c(S(N)(=O)=O)c1
117 to 118 °C | COC(=O)c1c(NC(C)=O)sc2c1CCC(C(C)(C)C)C2 (centres undefined)
101 to 102 °C | OCc1ccc2ccccc2c1Br
115 °C | CC(=NO)c1ccccc1NC(C(N)=O)c1c(Cl)cccc1Cl (centres undefined)
242 to 243 °C | O=C(O)/C=C/c1ccc(Oc2c(-c3ccccc3)c(C3CC3)cc3cc(O)ccc23)cc1
120 °C | COC(=O)c1ccc(NN)c(Cl)c1
> 200 °C | CC(C)/C=C(\C[C@H](N)C(=O)O)C(=O)O
162 °C | ClCCCOc1cc(Cl)c(OCCCCl)cc1Cl
